# Test results published in PubChem BioAssay (NCI).
#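 Interpolation was linear, between the two tested concentrations surrounding the appropriate level; five concentrations were tested over 48 hours in 96-well plates. GI50 = concentration required for 50% inhibition of growth. The concentration for full growth arrest is given as TGI.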
# Experiments:
# Experiment in all cases: NCI-60 cell line screen, 48 h
# ACHN renal = system: ACHN renal
# KM12 colon = system: KM12 colon
# LOX IMVI melanoma = system: LOX IMVI melanoma
# MALME-3M melanoma = system: MALME-3M melanoma
# MOLT-4 leukemia = system: MOLT-4 leukemia
# OVCAR-4 ovarian = system: OVCAR-4 ovarian
# RPMI-8226 leukemia = system: RPMI-8226 leukemia
# SF-295 CNS = system: SF-295 CNS
# SN12C renal = system: SN12C renal
# UACC-62 melanoma = system: UACC-62 melanoma
SMILES,GI50 (ACHN renal),TGI (ACHN renal),GI50 (KM12 colon),TGI (KM12 colon),GI50 (LOX IMVI melanoma),TGI (LOX IMVI melanoma),GI50 (MALME-3M melanoma),TGI (MALME-3M melanoma),GI50 (MOLT-4 leukemia),TGI (MOLT-4 leukemia),GI50 (OVCAR-4 ovarian),TGI (OVCAR-4 ovarian),GI50 (RPMI-8226 leukemia),TGI (RPMI-8226 leukemia),GI50 (SF-295 CNS),TGI (SF-295 CNS),GI50 (SN12C renal),TGI (SN12C renal),GI50 (UACC-62 melanoma),TGI (UACC-62 melanoma)
COc1ccc(-c2c3c(N)nc(-c4ccncc4)nc3nc3c2c(C)nn3-c2ccccc2)cc1,4.58 µM,> 100 µM,8.55 µM,> 100 µM,10.1 µM,> 100 µM,14.5 µM,> 100 µM,8.58 µM,> 100 µM,3.41 µM,30.8 µM,> 100 µM,> 100 µM,24.7 µM,> 100 µM,44.4 µM,> 100 µM,4.87 µM,51.9 µM
COc1cc2c(c(OC)c1)C1c3ccccc3NC(=O)N1CC2 (stereo not given),5.48 µM,> 100 µM,4.95 µM,> 100 µM,5.58 µM,> 100 µM,10.4 µM,67.8 µM,3.99 µM,> 100 µM,8.24 µM,> 100 µM,5.39 µM,68.2 µM,2.63 µM,9.14 µM,7.27 µM,> 100 µM,3.08 µM,> 100 µM
COc1ccc(/C(C#N)=C/c2ccccc2OC)cc1,32.1 µM,> 100 µM,5.04 µM,> 100 µM,6.6 µM,> 100 µM,17.1 µM,> 100 µM,5.49 µM,> 100 µM,32.5 µM,> 100 µM,9.02 µM,46.2 µM,29.1 µM,> 100 µM,21.1 µM,> 100 µM,7.36 µM,> 100 µM
C1C[OH+]CC[OH+]CCNCC[OH+]CC[OH+]CCN1.N.[Cl-].[Pt+4],4.33 µM,44 µM,19 µM,48.7 µM,7.66 µM,28.4 µM,3.14 µM,18.3 µM,3.89 µM,36.3 µM,2.84 µM,11.6 µM,10.2 µM,92.7 µM,2.96 µM,19.7 µM,18.7 µM,> 100 µM,3.39 µM,14.9 µM
Nc1nc2c(c3ncncc13)C(c1cccc(C(F)(F)F)c1)Cc1ncncc1-2 (stereo not given),7.06 µM,41.6 µM,4.43 µM,35.5 µM,5.36 µM,21.1 µM,10.2 µM,44.7 µM,4.78 µM,34.9 µM,10.8 µM,> 100 µM,5.33 µM,43.8 µM,2.99 µM,10.7 µM,7.66 µM,49.2 µM,3.86 µM,17.6 µM
COc1cc(OC)c2c(c1)C(=O)C(CC(C)O)=CC2=O (stereo not given),–,30.2 µM,–,35 µM,–,19 µM,–,37.3 µM,–,41.8 µM,–,31.9 µM,–,46.4 µM,–,27.4 µM,–,32.6 µM,–,25.8 µM
CCCCCCCCCCCC(=O)OCC1OC(n2cc(F)c(=O)[nH]c2=O)C(NC(=O)OCc2ccccc2)C(OC(=O)CCCCCCCCCCC)C1O (stereo not given),–,> 100 µM,–,> 100 µM,–,> 100 µM,–,> 100 µM,–,> 100 µM,–,> 100 µM,–,> 100 µM,–,> 100 µM,–,> 100 µM,–,> 100 µM
CCCCCCCCCCCCCCCCN1CC2CCCCC2C1 (stereo not given),15.7 µM,31.1 µM,5.15 µM,19.7 µM,3.77 µM,13.8 µM,16.9 µM,35.3 µM,1.92 µM,4.28 µM,11.9 µM,25.9 µM,1.97 µM,4.06 µM,14.6 µM,37 µM,8.26 µM,21.3 µM,8.1 µM,21.1 µM
COc1ccc2nc(-c3cccs3)cc(C(O)CN3CCSCC3)c2c1 (stereo not given),–,45.9 µM,–,74.2 µM,–,34.4 µM,–,35 µM,–,56.3 µM,–,> 100 µM,–,43 µM,–,> 100 µM,–,87.7 µM,–,38.6 µM
CN1CCC(n2cnc(-c3ccc(F)cc3)c2-c2ccnc(NCCO)n2)CC1,12.1 µM,> 25 µM,16.7 µM,> 25 µM,13.8 µM,> 25 µM,23.8 µM,> 25 µM,> 25 µM,> 25 µM,> 20.9 µM,> 25 µM,> 25 µM,> 25 µM,> 19.8 µM,> 25 µM,> 18.9 µM,> 25 µM,> 21.6 µM,> 25 µM
C=CC/C=C/Cc1csc(C(C)(C)C(O)C/C=C/C(=C)CCNC(=O)OC)n1 (stereo not given),–,> 100 µM,–,> 100 µM,–,> 100 µM,–,> 100 µM,–,> 100 µM,–,> 100 µM,–,> 100 µM,–,> 100 µM,–,> 100 µM,–,> 100 µM
